# Data from US7858776B2, “Lactams and uses thereof” (AstraZeneca AB, priority 2002, dated 2010).
# Counter-ions that a name gives are not always drawn.
row,Structure (SMILES),melting point
1,"C[C@H](NCCc1ccccc1)C(=O)N[C@@H]1C(=O)Nc2ccccc2S[C@@H]1c1ccccc1 (as salt: hydrochloride) [Example 98, N^1-[(2R,3R)-4-Oxo-2-phenyl-2,3,4,5-tetrahydro-1,5-benzothiazepin-3-yl]-N^2-(2-Phenylethyl)-L-alaninamide]",184 to 195 °C
2,"C[C@H](NC(=O)Cc1cc(F)cc(F)c1)C(=O)N[C@@H]1C(=O)NCCS[C@@H]1c1ccccc1 [Example 7, N^2-[(3,5-Difluorophenyl)acetyl]-N^1-[(6R,7R)-5-oxo-7-phenyl-1,4-thiazepan-6-yl]-L-alaninamide]",128 to 133 °C
3,"CC(C)C[C@H](O)C(=O)N[C@@H](C)C(=O)N[C@@H]1C(=O)NCCS[C@@H]1c1ccccc1 [Example 93, N^2-[(2S)-2-Hydroxy-4-methyl-1-oxopentyl]-N^1-[(6R,7R)-5-oxo-7-phenyl-1,4-thiazepan-6-yl]-L-alaninamide]",93 to 99 °C
4,"C[C@H](NC(=O)Cc1ccccc1)C(=O)N[C@@H]1C(=O)Nc2ccccc2S[C@@H]1c1ccccc1 [Example 97, N^1-[(2R,3R)-4-Oxo-2-phenyl-2,3,4,5-tetrahydro-1,5-benzothiazepin-3-yl]-N^2-(phenylacetyl)-L-alaninamide]",114 to 124 °C
5,"C[C@H](NC(=O)Cc1cc(F)cc(F)c1)C(=O)N[C@@H]1C(=O)Nc2ccccc2S[C@@H]1c1cccs1 [Example 99, N^2-[(3,5-Difluorophenyl)acetyl]-N^1-[(2S,3R)-4-oxo-2-(2-thienyl)-2,3,4,5-tetrahydro-1,5-benzothiazepin-3-yl]-L-alaninamide]",117 to 119 °C
6,"C[C@H](NC(=O)Cc1cc(F)cc(F)c1)C(=O)N[C@@H]1C(=O)Nc2ccccc2S[C@@H]1c1ccco1 [Example 101, N^2-[(3,5-Difluorophenyl)acetyl]-N^1-[(2S,3R)-2-(2-furyl)-4-oxo-2,3,4,5-tetrahydro-1,5-benzothiazepin-3-yl]-L-alaninamide]",125 to 130 °C
7,"C[C@H](NC(=O)Cc1cc(F)cc(F)c1)C(=O)N[C@@H]1C(=O)Nc2ccccc2S[C@H]1c1ccoc1 [Example 102, N^2-[(3,5-Difluorophenyl)acetyl]-N^1-[(2S,3R)-2-(3-furyl)-4-oxo-2,3,4,5-tetrahydro-1,5-benzothiazepin-3-yl]-L-alaninamide]",115 to 120 °C
8,"C[C@H](NC(=O)Cc1cc(F)cc(F)c1)C(=O)N[C@@H]1C(=O)Nc2ccccc2S[C@@H]1c1cc(Br)cs1 [Example 104, N^1-[(2S,3R)-2-(4-Bromo-2-thienyl)-4-oxo-2,3,4,5-tetrahydro-1,5-benzothiazepin-3-yl]-N^2-[(3,5-difluorophenyl)acetyl]-L-alaninamide]",145 to 155 °C
9,"N[C@@H](Cc1ccccc1)C(=O)N(C(=O)Cc1cc(F)cc(F)c1)[C@@H]1C(=O)Nc2ccccc2S[C@@H]1c1ccccc1 [Example 105, N-[(3,5-Difluorophenyl)acetyl]-N-[(2R,3R)-4-oxo-2-phenyl-2,3,4,5-tetrahydro-1,5-benzothiazepin-3-yl]-L-phenylalaninamide]",115 to 120 °C
10,"O=C(Cc1cc(F)cc(F)c1)NCC(=O)N[C@@H]1C(=O)Nc2ccccc2S[C@@H]1c1ccccc1 [Example 106, N^2-[(3,5-Difluorophenyl)acetyl]-N^1-[(2R,3R)-4-oxo-2-phenyl-2,3,4,5-tetrahydro-1,5-benzothiazepin-3-yl]glycinamide]",125 to 130 °C
11,"CC(C)[C@H](NC(=O)Cc1cc(F)cc(F)c1)C(=O)N[C@@H]1C(=O)Nc2ccccc2S[C@@H]1c1ccccc1 [Example 107, N^2-[(3,5-Difluorophenyl)acetyl]-N^1-[(2R,3R)-4-oxo-2-phenyl-2,3,4,5-tetrahydro-1,5-benzothiazepin-3-yl]-L-valinamide]",110 to 115 °C
12,"CSCC[C@H](NC(=O)Cc1cc(F)cc(F)c1)C(=O)N[C@@H]1C(=O)Nc2ccccc2S[C@@H]1c1ccccc1 [Example 109, N^2-[(3,5-Difluorophenyl)acetyl]N^1-[(2R,3R)-4-oxo-2-phenyl-2,3,4,5-tetrahydro-1,5-benzothiazepin-3-yl]-L-methioninamide]",85 to 90 °C
13,"O=C(Cc1cc(F)cc(F)c1)N[C@@H](Cc1cc2ccccc2[nH]1)C(=O)N[C@@H]1C(=O)Nc2ccccc2S[C@@H]1c1ccccc1 [Example 110, N^2-[(3,5-Difluorophenyl)acetyl]-3-(1H-indol-2-yl)-N^1-[(2R,3R)-4-oxo-2-phenyl-2,3,4,5-tetrahydro-1,5-benzothiazepin-3-yl]-L-alaninamide]",85 to 90 °C
14,"C[C@H](NC(=O)Cc1ccccc1)C(=O)N[C@@H]1C(=O)Nc2ccccc2O[C@@H]1c1ccccc1 [Example 113, N^1-[(2R,3S)-4-Oxo-2-phenyl-2,3,4,5-tetrahydro-1,5-benzoxazepin-3-yl]-N^2-(phenylacetyl)-L-alaninamide]",122 to 136 °C
15,"C[C@H](NC(=O)Cc1ccccc1F)C(=O)N[C@@H]1C(=O)Nc2ccccc2O[C@@H]1c1ccccc1 [Example 114, N^2-[(2-Fluorophenyl)acetyl]-N^1-[(2R,3S)-4-oxo-2-phenyl-2,3,4,5-tetrahydro-1,5-benzoxazepin-3-yl]-L-alaninamide]",115 to 135 °C
16,"C[C@H](NC(=O)Cc1cccc(F)c1)C(=O)N[C@@H]1C(=O)Nc2ccccc2O[C@@H]1c1ccccc1 [Example 115, N^2-[(3-Fluorophenyl)acetyl]-N^1-[(2R,3S)-4-oxo-2-phenyl-2,3,4,5-tetrahydro-1,5-benzoxazepin-3-yl]-L-alaninamide]",130 to 140 °C
17,"C[C@H](NC(=O)Cc1ccc(F)cc1)C(=O)N[C@@H]1C(=O)Nc2ccccc2O[C@@H]1c1ccccc1 [Example 116, N^2-[(4-Fluorophenyl)acetyl]-N^1-[(2R,3S)-4-oxo-2-phenyl-2,3,4,5-tetrahydro-1,5-benzoxazepin-3-yl]-L-alaninamide]",130 to 140 °C
